From PubChem BioAssay (NCI)
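Values below derive from 48-hour exposures of cells grown in 96-well plates, with endpoints linearly interpolated between the two concentrations bracketing the appropriate inhibition level. Definition used: TGI = concentration required for complete inhibition of growth.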

Experiments:
Test in all cases: growth of human tumour cells (NCI), 48 h
HOP-62 NSCLC = tested on: HOP-62 NSCLC
NCI-H522 lung = tested on: NCI-H522 lung
M14 melanoma = tested on: M14 melanoma
UACC-62 melanoma = tested on: UACC-62 melanoma
DU-145 prostate = tested on: DU-145 prostate
NCI-H226 lung = tested on: NCI-H226 lung
EKVX NSCLC = tested on: EKVX NSCLC
CCRF-CEM leukemia = tested on: CCRF-CEM leukemia
SK-MEL-2 melanoma = tested on: SK-MEL-2 melanoma
HCT-116 colon = tested on: HCT-116 colon
HOP-92 NSCLC = tested on: HOP-92 NSCLC
OVCAR-5 ovarian = tested on: OVCAR-5 ovarian
NCI-H23 lung = tested on: NCI-H23 lung
U251 CNS = tested on: U251 CNS
HS 578T breast = tested on: HS 578T breast
HT29 colon = tested on: HT29 colon
SN12C renal = tested on: SN12C renal
MCF7 breast = tested on: MCF7 breast
OVCAR-3 ovarian = tested on: OVCAR-3 ovarian
SK-MEL-5 melanoma = tested on: SK-MEL-5 melanoma
UO-31 renal = tested on: UO-31 renal
MDA-N = tested on: MDA-N
SK-OV-3 ovarian = tested on: SK-OV-3 ovarian
ACHN renal = tested on: ACHN renal
MDA-MB-231 breast = tested on: MDA-MB-231 breast
MOLT-4 leukemia = tested on: MOLT-4 leukemia
SF-268 CNS = tested on: SF-268 CNS
SW-620 colon = tested on: SW-620 colon
TK-10 renal = tested on: TK-10 renal
SF-295 CNS = tested on: SF-295 CNS
RXF 393 renal = tested on: RXF 393 renal
NCI/ADR-RES ovarian = tested on: NCI/ADR-RES ovarian
HCC-2998 colon = tested on: HCC-2998 colon
A498 renal = tested on: A498 renal
SK-MEL-28 melanoma = tested on: SK-MEL-28 melanoma
SNB-19 CNS = tested on: SNB-19 CNS
COLO 205 colon = tested on: COLO 205 colon
CAKI-1 renal = tested on: CAKI-1 renal
HL-60(TB) leukemia = tested on: HL-60(TB) leukemia
SNB-75 CNS = tested on: SNB-75 CNS
786-0 renal = tested on: 786-0 renal
K-562 leukemia = tested on: K-562 leukemia
UACC-257 melanoma = tested on: UACC-257 melanoma
SF-539 CNS = tested on: SF-539 CNS
OVCAR-4 ovarian = tested on: OVCAR-4 ovarian
A549 NSCLC = tested on: A549 NSCLC
MALME-3M melanoma = tested on: MALME-3M melanoma
HCT-15 colon = tested on: HCT-15 colon
T-47D breast = tested on: T-47D breast
KM12 colon = tested on: KM12 colon
MDA-MB-435 = tested on: MDA-MB-435
OVCAR-8 ovarian = tested on: OVCAR-8 ovarian
PC-3 prostate = tested on: PC-3 prostate
BT-549 breast = tested on: BT-549 breast
NCI-H460 lung = tested on: NCI-H460 lung
IGROV1 ovarian = tested on: IGROV1 ovarian
LOX IMVI melanoma = tested on: LOX IMVI melanoma
RPMI-8226 leukemia = tested on: RPMI-8226 leukemia

O=C(c1ccc(Cl)cc1)N(C(=S)OC12CC3CC(CC(C3)C1)C2)c1ccccc1
TGI (HOP-62 NSCLC): > 100 µM
TGI (NCI-H522 lung): 56.3 µM
TGI (M14 melanoma): > 100 µM
TGI (UACC-62 melanoma): > 100 µM
TGI (DU-145 prostate): > 100 µM
TGI (NCI-H226 lung): > 100 µM
TGI (EKVX NSCLC): 66.5 µM
TGI (CCRF-CEM leukemia): > 100 µM
TGI (SK-MEL-2 melanoma): > 100 µM
TGI (HCT-116 colon): > 100 µM
TGI (HOP-92 NSCLC): > 100 µM
TGI (OVCAR-5 ovarian): > 100 µM
TGI (NCI-H23 lung): > 100 µM
TGI (U251 CNS): > 100 µM
TGI (HS 578T breast): > 100 µM
TGI (HT29 colon): > 100 µM
TGI (SN12C renal): > 100 µM
TGI (MCF7 breast): > 100 µM
TGI (OVCAR-3 ovarian): > 100 µM
TGI (SK-MEL-5 melanoma): > 100 µM
TGI (UO-31 renal): 74.5 µM
TGI (MDA-N): > 100 µM
TGI (SK-OV-3 ovarian): > 100 µM
TGI (ACHN renal): > 100 µM
TGI (MDA-MB-231 breast): > 100 µM
TGI (MOLT-4 leukemia): 73.5 µM
TGI (SF-268 CNS): > 100 µM
TGI (SW-620 colon): > 100 µM
TGI (TK-10 renal): > 100 µM
TGI (SF-295 CNS): > 100 µM
TGI (RXF 393 renal): > 100 µM
TGI (NCI/ADR-RES ovarian): > 100 µM
TGI (HCC-2998 colon): > 100 µM
TGI (A498 renal): > 100 µM
TGI (SK-MEL-28 melanoma): > 100 µM
TGI (SNB-19 CNS): 89.7 µM
TGI (COLO 205 colon): 31.2 µM
TGI (CAKI-1 renal): > 100 µM
TGI (HL-60(TB) leukemia): 62.6 µM
TGI (SNB-75 CNS): > 100 µM
TGI (786-0 renal): > 100 µM
TGI (K-562 leukemia): > 100 µM
TGI (UACC-257 melanoma): > 100 µM
TGI (SF-539 CNS): > 100 µM
TGI (OVCAR-4 ovarian): > 100 µM
TGI (A549 NSCLC): > 100 µM
TGI (MALME-3M melanoma): > 100 µM
TGI (HCT-15 colon): > 100 µM
TGI (T-47D breast): > 100 µM
TGI (KM12 colon): > 100 µM
TGI (MDA-MB-435): > 100 µM
TGI (OVCAR-8 ovarian): > 100 µM
TGI (PC-3 prostate): > 100 µM
TGI (BT-549 breast): > 100 µM
TGI (NCI-H460 lung): > 100 µM

C[C@]12CC[C@@H]3c4cc(Br)c(O)c(Br)c4CC[C@H]3[C@@H]1CC(Br)C2=O (stereo partly specified)
TGI (M14 melanoma): > 100 µM
TGI (UACC-62 melanoma): 14.8 µM
TGI (DU-145 prostate): > 100 µM
TGI (NCI-H226 lung): 26.6 µM
TGI (EKVX NSCLC): 39.6 µM
TGI (CCRF-CEM leukemia): 50.5 µM
TGI (SK-MEL-2 melanoma): 27.3 µM
TGI (HCT-116 colon): > 100 µM
TGI (HOP-92 NSCLC): 45.6 µM
TGI (OVCAR-5 ovarian): 73.2 µM
TGI (IGROV1 ovarian): 23.6 µM
TGI (U251 CNS): 12.7 µM
TGI (HS 578T breast): 82.4 µM
TGI (HT29 colon): 10.7 µM
TGI (SN12C renal): 38.4 µM
TGI (MCF7 breast): 29.9 µM
TGI (UO-31 renal): 9.03 µM
TGI (MDA-N): 43.5 µM
TGI (SK-OV-3 ovarian): 30.2 µM
TGI (ACHN renal): 21.2 µM
TGI (MDA-MB-231 breast): 75 µM
TGI (MOLT-4 leukemia): 9.36 µM
TGI (SF-268 CNS): 26.8 µM
TGI (SW-620 colon): 9.57 µM
TGI (TK-10 renal): 29.4 µM
TGI (SF-295 CNS): 33.1 µM
TGI (RXF 393 renal): 19.3 µM
TGI (NCI/ADR-RES ovarian): 39.5 µM
TGI (HCC-2998 colon): 3.73 µM
TGI (A498 renal): 44.6 µM
TGI (SK-MEL-28 melanoma): 22.3 µM
TGI (COLO 205 colon): > 100 µM
TGI (CAKI-1 renal): 15.9 µM
TGI (HL-60(TB) leukemia): 7.52 µM
TGI (SNB-75 CNS): 27.9 µM
TGI (786-0 renal): > 100 µM
TGI (K-562 leukemia): 13.6 µM
TGI (UACC-257 melanoma): 33.5 µM
TGI (SF-539 CNS): 24.4 µM
TGI (OVCAR-4 ovarian): > 100 µM
TGI (A549 NSCLC): 38.8 µM
TGI (MALME-3M melanoma): 34.2 µM
TGI (HCT-15 colon): 10.1 µM
TGI (T-47D breast): > 100 µM
TGI (LOX IMVI melanoma): > 100 µM
TGI (KM12 colon): 15.8 µM
TGI (MDA-MB-435): 21.6 µM
TGI (OVCAR-8 ovarian): 7.83 µM
TGI (PC-3 prostate): 27.2 µM
TGI (BT-549 breast): 17.6 µM
TGI (NCI-H460 lung): 18.8 µM

CCO/C(O)=C(/C(=N)N1CCOCC1)C(=O)Nc1ccc(Cl)cc1
TGI (HOP-62 NSCLC): > 100 µM
TGI (NCI-H522 lung): > 100 µM
TGI (M14 melanoma): > 100 µM
TGI (UACC-62 melanoma): > 100 µM
TGI (DU-145 prostate): > 100 µM
TGI (NCI-H226 lung): > 100 µM
TGI (EKVX NSCLC): > 100 µM
TGI (CCRF-CEM leukemia): > 100 µM
TGI (SK-MEL-2 melanoma): > 100 µM
TGI (HCT-116 colon): > 100 µM
TGI (OVCAR-5 ovarian): > 100 µM
TGI (NCI-H23 lung): > 100 µM
TGI (IGROV1 ovarian): > 100 µM
TGI (U251 CNS): > 100 µM
TGI (HS 578T breast): > 100 µM
TGI (HT29 colon): > 100 µM
TGI (SN12C renal): > 100 µM
TGI (MCF7 breast): > 100 µM
TGI (OVCAR-3 ovarian): > 100 µM
TGI (MDA-N): > 100 µM
TGI (SK-OV-3 ovarian): > 100 µM
TGI (ACHN renal): > 100 µM
TGI (MDA-MB-231 breast): > 100 µM
TGI (MOLT-4 leukemia): > 100 µM
TGI (SF-268 CNS): > 100 µM
TGI (SW-620 colon): > 100 µM
TGI (TK-10 renal): > 100 µM
TGI (SF-295 CNS): > 100 µM
TGI (RXF 393 renal): > 100 µM
TGI (NCI/ADR-RES ovarian): > 100 µM
TGI (HCC-2998 colon): > 100 µM
TGI (A498 renal): > 100 µM
TGI (SK-MEL-28 melanoma): > 100 µM
TGI (SNB-19 CNS): > 100 µM
TGI (COLO 205 colon): > 100 µM
TGI (RPMI-8226 leukemia): > 100 µM
TGI (CAKI-1 renal): > 100 µM
TGI (HL-60(TB) leukemia): > 100 µM
TGI (SNB-75 CNS): > 100 µM
TGI (786-0 renal): > 100 µM
TGI (K-562 leukemia): > 100 µM
TGI (UACC-257 melanoma): > 100 µM
TGI (SF-539 CNS): > 100 µM
TGI (OVCAR-4 ovarian): > 100 µM
TGI (A549 NSCLC): > 100 µM
TGI (MALME-3M melanoma): > 100 µM
TGI (HCT-15 colon): > 100 µM
TGI (T-47D breast): > 100 µM
TGI (LOX IMVI melanoma): > 100 µM
TGI (KM12 colon): > 100 µM
TGI (MDA-MB-435): > 100 µM
TGI (OVCAR-8 ovarian): > 100 µM
TGI (PC-3 prostate): > 100 µM
TGI (BT-549 breast): > 100 µM
TGI (NCI-H460 lung): > 100 µM
